In patent US20120029187A1, “HALOALKYLSULFONANILIDE DERIVATIVE” (Nissan Chemical Industries, Ltd., priority 2009, published 2012):

Key:
Format in all cases: in vivo
ducksalad [1] = assay: Test Example 1: herbicidal effects in preemergence treatment under submerged conditions; settings: dose 2.52 g/a
How it was run: (§1)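 Alluvial soil flooded to 4 cm depth; barnyardgrass, bulrush and ducksalad sown and 2.5-leaf rice seedlings transplanted. Same day, water-diluted emulsifiable concentrates applied to the water surface at set doses (g/a). Kept at 25–30 °C in greenhouse; effects scored 0–5 by mortality after three weeks.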

barnyardgrass [2] = assay: as above; settings: dose 2.52 g/a
How it was run: as §1

bulrush [3] = assay: as above; settings: dose 2.52 g/a
How it was run: as §1

redroot pigweed [4] = assay: Test Example 3: herbicidal effects in soil treatment; settings: dose 3.2 g/a
How it was run: (§2)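 Seeds were sown in sterilized diluvial soil and covered with about 1.5 cm of soil. Compounds, formulated as emulsifiable concentrates and diluted with water, were sprayed evenly over the soil surface at set doses in g/a. Herbicidal effect was scored on a rating scale three weeks later.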

common ragweed [5] = assay: as above; settings: dose 3.2 g/a
How it was run: as §2

water foxtail [6] = assay: as above; settings: dose 3.2 g/a
How it was run: as §2

large crabgrass [7] = assay: as above; settings: dose 3.2 g/a
How it was run: as §2

barnyardgrass [8] = assay: as above; settings: dose 3.2 g/a
How it was run: as §2

common lambsquater [9] = assay: as above; settings: dose 3.2 g/a
How it was run: as §2

velvetleaf [10] = assay: as above; settings: dose 3.2 g/a
How it was run: as §2

Italian ryegrass [11] = assay: as above; settings: dose 3.2 g/a
How it was run: as §2

beadstraw = assay: as above; settings: dose 3.2 g/a
How it was run: as §2

common chickweed [12] = assay: as above; settings: dose 3.2 g/a
How it was run: as §2

giant foxtail [13] = assay: as above; settings: dose 3.2 g/a
How it was run: as §2

posumbu knotweed [14] = assay: as above; settings: dose 3.2 g/a
How it was run: as §2

redroot pigweed [15] = assay: Test Example 4: herbicidal effect in foliage treatment; settings: dose 3.2 g/a, three weeks after application
How it was run: (§3)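 Seeds sown in sterilized diluvial soil under ~1.5 cm soil cover and grown 14 days in a greenhouse at 25 to 30° C. Emulsifiable concentrates diluted with water were then sprayed uniformly on foliage at predetermined doses (g/a). Herbicidal effect was scored three weeks after application on a graded evaluation scale.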

common ragweed [16] = assay: as above; settings: dose 3.2 g/a, three weeks after application
How it was run: as §3

water foxtail [17] = assay: as above; settings: dose 3.2 g/a, three weeks after application
How it was run: as §3

large crabgrass [18] = assay: as above; settings: dose 3.2 g/a, three weeks after application
How it was run: as §3

barnyardgrass [19] = assay: as above; settings: dose 3.2 g/a, three weeks after application
How it was run: as §3

common lambsquater [20] = assay: as above; settings: dose 3.2 g/a, three weeks after application
How it was run: as §3

velvetleaf [21] = assay: as above; settings: dose 3.2 g/a, three weeks after application
How it was run: as §3

Italian ryegrass [22] = assay: as above; settings: dose 3.2 g/a, three weeks after application
How it was run: as §3

common chickweed [23] = assay: as above; settings: dose 3.2 g/a, three weeks after application
How it was run: as §3

giant foxtail [24] = assay: as above; settings: dose 3.2 g/a, three weeks after application
How it was run: as §3

posumbu knotweed [25] = assay: as above; settings: dose 3.2 g/a, three weeks after application
How it was run: as §3

transplanted rice = assay: Test Example 1: preemergence treatment under submerged conditions, effect on crop; settings: dose 2.52 g/a
How it was run: as §1

ducksalad [26] = assay: Test Example 2: herbicidal effects during the vegetation period under submerged conditions; settings: treatment during the vegetation period under submerged conditions; dose 2.52 g/a
How it was run: (§4)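 Barnyardgrass, bulrush and ducksalad were co-sown in alluvial soil flooded to 4 cm and grown in a greenhouse at 25 to 30° C. At the 1- or 2-leaf stage, water-diluted emulsifiable concentrates went onto the water surface at set doses (g/a). Herbicidal effect was scored three weeks later on a graded scale.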

barnyardgrass [27] = assay: as above; settings: treatment during the vegetation period under submerged conditions; dose 2.52 g/a
How it was run: as §4

bulrush [28] = assay: as above; settings: treatment during the vegetation period under submerged conditions; dose 2.52 g/a
How it was run: as §4

SMILES	C: ducksalad, herbicidal effect (evaluation scale 0-5) (ducksalad [1])	A: barnyardgrass, herbicidal effect (evaluation scale 0-5) (barnyardgrass [2])	B: bulrush, herbicidal effect (evaluation scale 0-5) (bulrush [3])	K: redroot pigweed, herbicidal effect (evaluation scale 0-5) (redroot pigweed [4])	J: common ragweed, herbicidal effect (evaluation scale 0-5) (common ragweed [5])	G: water foxtail, herbicidal effect (evaluation scale 0-5) (water foxtail [6])	D: large crabgrass, herbicidal effect (evaluation scale 0-5) (large crabgrass [7])	A: barnyardgrass, herbicidal effect (evaluation scale 0-5) (barnyardgrass [8])	L: common lambsquater, herbicidal effect (evaluation scale 0-5) (common lambsquater [9])	I: velvetleaf, herbicidal effect (evaluation scale 0-5) (velvetleaf [10])	H: Italian ryegrass, herbicidal effect (evaluation scale 0-5) (Italian ryegrass [11])	O: beadstraw, herbicidal effect (evaluation scale 0-5) (beadstraw)	N: common chickweed, herbicidal effect (evaluation scale 0-5) (common chickweed [12])	E: giant foxtail, herbicidal effect (evaluation scale 0-5) (giant foxtail [13])	M: posumbu knotweed, herbicidal effect (evaluation scale 0-5) (posumbu knotweed [14])	K: redroot pigweed, herbicidal effect (redroot pigweed [15])	J: common ragweed, herbicidal effect (common ragweed [16])	G: water foxtail, herbicidal effect (water foxtail [17])	D: large crabgrass, herbicidal effect (large crabgrass [18])	A: barnyardgrass, herbicidal effect (barnyardgrass [19])	other results
CC1(C2CC2)CC(=O)N(Cc2ccccc2NS(=O)(=O)C(F)(F)F)CO1 (stereo not drawn) [II-44]	5 (mortality of 90% or above (nearly complete death))	5 (mortality of 90% or above (nearly complete death))	5 (mortality of 90% or above (nearly complete death))	0 (mortality of less than 5% (almost ineffective))	3 (mortality of at least 40% and less than 70%)	5 (mortality of 90% or above (nearly complete death))	4 (mortality of at least 70% and less than 90%)	5 (mortality of 90% or above (nearly complete death))	0 (mortality of less than 5% (almost ineffective))	3 (mortality of at least 40% and less than 70%)	5 (mortality of 90% or above (nearly complete death))	0 (mortality of less than 5% (almost ineffective))	2 (mortality of at least 20% and less than 40%)	4 (mortality of at least 70% and less than 90%)	3 (mortality of at least 40% and less than 70%)	0 (mortality of less than 5% (almost ineffective))	2 (mortality of at least 20% and less than 40%)	4 (mortality of at least 70% and less than 90%)	2 (mortality of at least 20% and less than 40%)	4 (mortality of at least 70% and less than 90%)	L: common lambsquater, herbicidal effect (common lambsquater [20]): 1 (mortality of at least 5% and less than 20%); I: velvetleaf, herbicidal effect (velvetleaf [21]): 3 (mortality of at least 40% and less than 70%); H: Italian ryegrass, herbicidal effect (Italian ryegrass [22]): 4 (mortality of at least 70% and less than 90%); N: common chickweed, herbicidal effect (common chickweed [23]): 4 (mortality of at least 70% and less than 90%); E: giant foxtail, herbicidal effect (giant foxtail [24]): 3 (mortality of at least 40% and less than 70%); M: posumbu knotweed, herbicidal effect (posumbu knotweed [25]): 1 (mortality of at least 5% and less than 20%); a: transplanted rice, effect on crop (evaluation scale 0-5) (transplanted rice): 3 (mortality of at least 40% and less than 70%); C: ducksalad, herbicidal effect (evaluation scale 0-5) (ducksalad [26]): 5 (mortality of 90% or above (nearly complete death)); A: barnyardgrass, herbicidal effect (evaluation scale 0-5) (barnyardgrass [27]): 5 (mortality of 90% or above (nearly complete death)); B: bulrush, herbicidal effect (evaluation scale 0-5) (bulrush [28]): 5 (mortality of 90% or above (nearly complete death))
O=C1CC2(CCCC2)OCN1Cc1ccccc1NS(=O)(=O)C(F)(F)F [II-64]	5 (mortality of 90% or above (nearly complete death))	5 (mortality of 90% or above (nearly complete death))	5 (mortality of 90% or above (nearly complete death))	4 (mortality of at least 70% and less than 90%)	4 (mortality of at least 70% and less than 90%)	5 (mortality of 90% or above (nearly complete death))	5 (mortality of 90% or above (nearly complete death))	5 (mortality of 90% or above (nearly complete death))	5 (mortality of 90% or above (nearly complete death))	3 (mortality of at least 40% and less than 70%)	5 (mortality of 90% or above (nearly complete death))	4 (mortality of at least 70% and less than 90%)	4 (mortality of at least 70% and less than 90%)	5 (mortality of 90% or above (nearly complete death))	5 (mortality of 90% or above (nearly complete death))	0 (mortality of less than 5% (almost ineffective))	3 (mortality of at least 40% and less than 70%)	5 (mortality of 90% or above (nearly complete death))	4 (mortality of at least 70% and less than 90%)	4 (mortality of at least 70% and less than 90%)	L: common lambsquater, herbicidal effect (common lambsquater [20]): 2 (mortality of at least 20% and less than 40%); I: velvetleaf, herbicidal effect (velvetleaf [21]): 1 (mortality of at least 5% and less than 20%); H: Italian ryegrass, herbicidal effect (Italian ryegrass [22]): 3 (mortality of at least 40% and less than 70%); N: common chickweed, herbicidal effect (common chickweed [23]): 4 (mortality of at least 70% and less than 90%); E: giant foxtail, herbicidal effect (giant foxtail [24]): 4 (mortality of at least 70% and less than 90%); M: posumbu knotweed, herbicidal effect (posumbu knotweed [25]): 3 (mortality of at least 40% and less than 70%); a: transplanted rice, effect on crop (evaluation scale 0-5) (transplanted rice): 0 (mortality of less than 5% (almost ineffective)); C: ducksalad, herbicidal effect (evaluation scale 0-5) (ducksalad [26]): 5 (mortality of 90% or above (nearly complete death)); A: barnyardgrass, herbicidal effect (evaluation scale 0-5) (barnyardgrass [27]): 5 (mortality of 90% or above (nearly complete death)); B: bulrush, herbicidal effect (evaluation scale 0-5) (bulrush [28]): 5 (mortality of 90% or above (nearly complete death))
